Reference: US7847127B2, “Process for preparation of atovaquone and novel intermediates thereof” (IPCA Laboratories Limited, priority 2007, dated 2010)

Assay: Stability of the physical form on storage under ambient conditions
Type: physicochemical
Settings: stable = remains substantially in the same physical form for at least a month at 20° C./60% RH
Experimental: The term “stable,” as used herein, refers to the tendency to remain substantially in the same physical form for at least a month, preferably at least 6 months, more preferably at least a year, still more preferably at least 2 years, when stored under ambient conditions (20° C./60% RH) without external treatment. Substantially the same physical form in this context means that at least 50%, preferably at least 80% and more preferably at least 90% of the crystalline form remains.

O=C1C(O)=C([C@H]2CC[C@H](c3ccc(Cl)cc3)CC2)C(=O)c2ccccc21 [Form IPCA-ATO, trans-2-[4-(4-chlorophenyl)cyclohexyl]-3-hydroxy-1,4-naphthoquinone]
Stability of the crystalline form: stable
